Reference: PubChem BioAssay AID1963434 (Molecular Pharmacology Branch, DTP, NCI, 2024)

System: 755483-174-R-J1-PDC complex spheroid growth, percent test/control
Test: Anticancer human tumor 755483-174-R-J1-PDC patient-derived rhabdomyosarcoma cell line growth inhibition [Asc]
Settings: for IC50: curve of first compound; for viability, T/C: stronger effect = lower value
Procedure, shortened: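 Concentration series start at each agent's clinical Cmax, or at 10 microM when none is established, and drop in half-log steps; agents are applied alone or together to complex spheroids built with HUVEC and hMSC.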

[1] = second compound 0.1 µM, first compound 0.00316 µM
[2] = second compound 0.1 µM, first compound 0.01 µM
[3] = second compound 0.1 µM, first compound 0.0316 µM
[4] = second compound 0.1 µM, first compound 0.1 µM
[5] = second compound 0.1 µM, first compound 0.316 µM
[6] = second compound 0.1 µM, first compound 1 µM
[7] = second compound 0.316 µM, first compound 0.00316 µM
[8] = second compound 0.316 µM, first compound 0.01 µM
[9] = second compound 0.316 µM, first compound 0.0316 µM
[10] = second compound 0.316 µM, first compound 0.1 µM
[11] = second compound 0.316 µM, first compound 0.316 µM
[12] = second compound 0.316 µM, first compound 1 µM
[13] = second compound 1 µM, first compound 0.00316 µM
[14] = second compound 1 µM, first compound 0.01 µM
[15] = second compound 1 µM, first compound 0.0316 µM
[16] = second compound 1 µM, first compound 0.1 µM
[17] = second compound 1 µM, first compound 0.316 µM
[18] = second compound 1 µM, first compound 1 µM
[19] = second compound 3.16 µM, first compound 0.00316 µM
[20] = second compound 3.16 µM, first compound 0.01 µM
[21] = second compound 3.16 µM, first compound 0.0316 µM
[22] = second compound 3.16 µM, first compound 0.1 µM
[23] = second compound 3.16 µM, first compound 0.316 µM
[24] = second compound 3.16 µM, first compound 1 µM
[25] = second compound 10 µM, first compound 0.00316 µM
[26] = second compound 10 µM, first compound 0.01 µM
[27] = second compound 10 µM, first compound 0.0316 µM
[28] = second compound 10 µM, first compound 0.1 µM
[29] = second compound 10 µM, first compound 0.316 µM
[30] = second compound 10 µM, first compound 1 µM
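Note: spheroids exposed to compounds for seven days before readout.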

SMILES	IC50 (second compound 0.1 µM)	IC50 (second compound 0.316 µM)	IC50 (second compound 1 µM)	IC50 (second compound 3.16 µM)	IC50 (second compound 10 µM)	viability, T/C [1]	viability, T/C [2]	viability, T/C [3]	viability, T/C [4]	viability, T/C [5]	viability, T/C [6]	viability, T/C [7]	viability, T/C [9]	viability, T/C [10]	viability, T/C [15]	viability, T/C [16]	viability, T/C [21]	viability, T/C [22]	viability, T/C [27]	viability, T/C [28]	also measured
CCN1CCN(Cc2ccc(Nc3ncc(F)c(-c4cc(F)c5nc(C)n(C(C)C)c5c4)n3)nc2)CC1 + Cc1c(S(C)(=O)=O)c(-c2cc(F)cc(N3CCN(c4ccc(NS(=O)(=O)c5ccc(NC(CCN6CCC(C(=O)OCCCP(=O)(O)O)CC6)CSc6ccccc6)c(S(=O)(=O)C(F)(F)F)c5)cc4)CC3)c2)c(-c2ccc(Cl)cc2)n1C(C)C	> 1000 nM	< 3.16 nM	< 3.16 nM	< 3.16 nM	< 3.16 nM	43%	62.1%	59.5%	68.5%	103%	104%	41%	57.9%	59.3%	37.3%	50.2%	36.6%	45.4%	55%	54.4%	viability, T/C [8]: 48%; viability, T/C [11]: 69%; viability, T/C [12]: 81.7%; viability, T/C [13]: 33.3%; viability, T/C [14]: 45.3%; viability, T/C [17]: 49.5%; viability, T/C [18]: 49.7%; viability, T/C [19]: 31.3%; viability, T/C [20]: 66%; viability, T/C [23]: 40.9%; viability, T/C [24]: 58.5%; viability, T/C [25]: 52.8%; viability, T/C [26]: 41.9%; viability, T/C [29]: 66.9%; viability, T/C [30]: 70.9%
Cn1ncnc1[C@H]1c2n[nH]c(=O)c3cc(F)cc(c23)N[C@@H]1c1ccc(F)cc1 + Cc1c(S(C)(=O)=O)c(-c2cc(F)cc(N3CCN(c4ccc(NS(=O)(=O)c5ccc(NC(CCN6CCC(C(=O)OCCCP(=O)(O)O)CC6)CSc6ccccc6)c(S(=O)(=O)C(F)(F)F)c5)cc4)CC3)c2)c(-c2ccc(Cl)cc2)n1C(C)C	1.85 nM	< 0.316 nM	< 0.316 nM	< 0.316 nM	< 0.316 nM	49.3%	30.7%	28.1%	35%	–	–	34.7%	25%	30.3%	23.7%	21.6%	19.2%	18.8%	16.7%	15.7%	viability, T/C (second compound 0.1 µM, first compound 0.000316 µM): 50.8%; viability, T/C (second compound 0.1 µM, first compound 0.001 µM): 50.7%; viability, T/C (second compound 0.316 µM, first compound 0.000316 µM): 46.2%; viability, T/C (second compound 0.316 µM, first compound 0.001 µM): 41%; viability, T/C [8]: 38.1%; viability, T/C (second compound 1 µM, first compound 0.000316 µM): 38.2%; viability, T/C (second compound 1 µM, first compound 0.001 µM): 32.1%; viability, T/C [13]: 35%; viability, T/C [14]: 34%; viability, T/C (second compound 3.16 µM, first compound 0.000316 µM): 38%; viability, T/C (second compound 3.16 µM, first compound 0.001 µM): 39.3%; viability, T/C [19]: 24.7%; viability, T/C [20]: 18.6%; viability, T/C (second compound 10 µM, first compound 0.000316 µM): 32.6%; viability, T/C (second compound 10 µM, first compound 0.001 µM): 39.4%; viability, T/C [25]: 32.9%; viability, T/C [26]: 29.5%
O=C(c1cc(Cc2n[nH]c(=O)c3ccccc23)ccc1F)N1CCN(C(=O)C2CC2)CC1 + Cc1c(S(C)(=O)=O)c(-c2cc(F)cc(N3CCN(c4ccc(NS(=O)(=O)c5ccc(NC(CCN6CCC(C(=O)OCCCP(=O)(O)O)CC6)CSc6ccccc6)c(S(=O)(=O)C(F)(F)F)c5)cc4)CC3)c2)c(-c2ccc(Cl)cc2)n1C(C)C	< 31.6 nM	< 31.6 nM	< 31.6 nM	< 31.6 nM	< 31.6 nM	–	–	40.4%	35.8%	53%	47.3%	–	39.7%	32.4%	32.6%	38.9%	31%	32.7%	20.1%	30.2%	viability, T/C (second compound 0.1 µM, first compound 3.16 µM): 25.8%; viability, T/C (second compound 0.1 µM, first compound 10 µM): 14.7%; viability, T/C [11]: 28.6%; viability, T/C [12]: 25.4%; viability, T/C (second compound 0.316 µM, first compound 3.16 µM): 23.5%; viability, T/C (second compound 0.316 µM, first compound 10 µM): 12.2%; viability, T/C [17]: 24.2%; viability, T/C [18]: 31.6%; viability, T/C (second compound 1 µM, first compound 3.16 µM): 20.4%; viability, T/C (second compound 1 µM, first compound 10 µM): 12.7%; viability, T/C [23]: 22.9%; viability, T/C [24]: 17.6%; viability, T/C (second compound 3.16 µM, first compound 3.16 µM): 14.7%; viability, T/C (second compound 3.16 µM, first compound 10 µM): 8.75%; viability, T/C [29]: 24.1%; viability, T/C [30]: 33.2%; viability, T/C (second compound 10 µM, first compound 3.16 µM): 20.3%; viability, T/C (second compound 10 µM, first compound 10 µM): 9.59%
O=C(c1ccc(F)c(F)c1Nc1ccc(I)cc1F)N1CC(O)([C@@H]2CCCCN2)C1 + Cc1c(S(C)(=O)=O)c(-c2cc(F)cc(N3CCN(c4ccc(NS(=O)(=O)c5ccc(NC(CCN6CCC(C(=O)OCCCP(=O)(O)O)CC6)CSc6ccccc6)c(S(=O)(=O)C(F)(F)F)c5)cc4)CC3)c2)c(-c2ccc(Cl)cc2)n1C(C)C	21.6 nM	< 3.16 nM	< 3.16 nM	< 3.16 nM	< 3.16 nM	46.3%	71.5%	33.4%	45.1%	30.7%	4.92%	41.9%	44.8%	43.7%	42.1%	36.9%	26.6%	29.5%	32.1%	29.1%	viability, T/C [8]: 42%; viability, T/C [11]: 22%; viability, T/C [12]: 6.11%; viability, T/C [13]: 39.2%; viability, T/C [14]: 44.3%; viability, T/C [17]: 24.6%; viability, T/C [18]: 4.55%; viability, T/C [19]: 38.9%; viability, T/C [20]: 25%; viability, T/C [23]: 15.3%; viability, T/C [24]: 3.65%; viability, T/C [25]: 34.5%; viability, T/C [26]: 42%; viability, T/C [29]: 11.1%; viability, T/C [30]: 2.13%
